Assay results as given in patent US11466034B2, “Compound functioning as bromodomain protein inhibitor, and composition” (Betta Pharmaceuticals Co., Ltd., priority 2017, dated 2022).

Assays:
[1] = Stability test of Compound 19 crystalline form I (XRD); assay type: physicochemical
[2] = Pharmacokinetic assay in male SD rats, single gavage; assay type: in vivo; settings: Sprague-Dawley (SD), rat, plasma
Protocol: Male SD rats were offered by Beijing Vital River Laboratory Animal Technology Co., Ltd., the rats were divided into groups of 3, and the suspension of the test sample (5 mg/kg-20 mg/kg) was given by single gavage. The animals were fasted overnight before the experiment, the fasting time was from 10 hours before the administration to 4 hours after the administration. Blood was collected at 0.25, 0.5, 1, 2, 4, 7, and 24 hours after administration. Blood was collected from fundus venous plexus, and placed in EDTA-K2 anticoagulation tube. The sample was centrifuged at 4° C. and 4000 rpm for 10 min, the plasma was transferred into centrifuge tubes and the compound to be test was extracted by protein precipitation, the extract was analyzed by LC-MS/MS.

BRD4(D1) = BRD4(D1) (Homo sapiens (Human), UniProt O60885); test: Inhibitory activity against BRD4(D1), HTRF assay; assay type: binding
Protocol: (§1) (+)-JQ1 was used as comparison compound, to evaluated the inhibitory activity of compounds of the invention against BRD4(D1) and BRD4(D2) in vitro.
(§2) The assays of BRD4 (D1) and BRD4 (D2) were conducted in a 384-well polystyrene plate. The test compounds were first serially diluted in DMSO and the test compound/DMSO were transferred to 384-well plates. The final concentration of DMSO in the assay was 0.1%. 2 volumes of protein/peptide mixture were added into 384-well plates, then 2 volumes of assay mixture were added, and shake for 30 s. The plate was incubated at room temperature for 2 h. Then the HTRF signal on EnVision was readed.
(§3) Use equation (1) to fit the date in Excel to obtain the value of the inhibition rate. Inhibition rate (%)=(maximum value−signal value)/(maximum value−minimum value)*100 Equation(1):
(§4) IC50 determination was performed by fitting the data using GraphPad Prism 5.0 software and equation (2). Y=bottom+(Top−bottom)/(1+10^((Log IC50−X)*HillSlope)); Equation(2): wherein, Y represents the percentage of inhibition (%); X represents the concentration of test compounds.
(§5) The IC50 data of the examples were provided in the following table, wherein, A stands for IC50<100 nM; B stands for IC50 is 100-300 nM; C stands for IC50>300 nM.

BRD4(D2) = BRD4(D2) (Homo sapiens (Human), UniProt O60885); test: Inhibitory activity against BRD4(D2), HTRF assay; assay type: binding
Protocol: as §1, §2, §3, §4, §5

Row | AUC(0-t) ([2]; oral dose 10 mg/kg) | Cmax ([2]; oral dose 10 mg/kg) | half-life ([2]; oral dose 10 mg/kg) | IC50 (BRD4(D1); numeric values) | IC50 (BRD4(D2); numeric values) | IC50 (BRD4(D1); class symbols) | IC50 (BRD4(D2); class symbols) | Structure (SMILES) | further results
1 | 9430 ng·h/mL | 730 ng/mL | 4.5 h | 9.1 nM | 1.6 nM |  |  | Cc1nc2ncc(-c3cn(C)c(=O)c4[nH]ccc34)nc2n1Cc1ccc(C(F)(F)F)cc1 [Example 19, 6-methyl-4-(2-methyl-1-(4-(trifluoromethyl)benzyl)-1H-imidazo[4,5-b]pyrazin-6-yl)-1H-pyrrolo[2,3-c]pyridin-7(6H)-one] | 
2 | 5100 ng·h/mL | 1960 ng/mL | 2.3 h | 1.6 nM | 0.5 nM |  |  | CCS(=O)(=O)Nc1cc(-c2cn(C)c(=O)c3[nH]ccc23)nc2c1ncn2Cc1ccc(C(F)(F)F)cc1 [Example 58, N-(5-(6-methyl-7-oxo-6,7-dihydro-1H-pyrrolo[2,3-c]pyridin-4-yl)-3-(4-(trifluoromethyl)benzyl)-3H-imidazo[4,5-b]pyridin-7-yl)ethanesulfonamide] | 
3 |  |  |  | 1.2 nM | 0.5 nM |  |  | CCS(=O)(=O)Nc1cc(-c2cn(C)c(=O)c3[nH]ccc23)nc2c1ncn2Cc1ccc(F)cc1F [Example 59, N-(3-(2,4-difluorobenzyl)-5-(6-methyl-7-oxo-6,7-dihydro-1H-pyrrolo[2,3-c]pyridin-4-yl)-3H-imidazo[4,5-b]pyridin-7-yl)ethanesulfonamide] | AUC(0-t) ([2]; oral dose 5 mg/kg): 10200 ng·h/mL; Cmax ([2]; oral dose 5 mg/kg): 3290 ng/mL; half-life ([2]; oral dose 5 mg/kg): 2.3 h
4 |  |  |  |  |  | 100 to 300 nM | 100 to 300 nM | CCS(=O)(=O)Nc1cc(-c2cn(C)c(=O)c3[nH]ccc23)nc2c1ncn2C(C)c1ccc(Cl)cc1 (stereo not shown) [Example 60, N-(3-(1-(4-chlorophenyl)ethyl)-5-(6-methyl-7-oxo-6,7-dihydro-1H-pyrrolo[2,3-c]pyridin-4-yl)-3H-imidazo[4,5-b]pyridin-7-yl)ethanesulfonamide] | 
5 |  |  |  |  |  | < 100 nM | < 100 nM | CCS(=O)(=O)Nc1cc(-c2cn(C)c(=O)c3[nH]ccc23)nc2c1ncn2Cc1cc(C(F)(F)F)ccc1F [Example 61, N-(3-(2-fluoro-5-(trifluoromethyl)benzyl)-5-(6-methyl-7-oxo-6,7-dihydro-H-pyrrolo[2,3-c]pyridin-4-yl)-3H-imidazo[4,5-b]pyridin-7-yl)ethanesulfonamide] | 
6 |  |  |  | 1.3 nM | 1.2 nM |  |  | CCS(=O)(=O)Nc1cc(-c2cn(C)c(=O)c3[nH]ccc23)nc2c1ncn2Cc1cc(F)cc(F)c1 [Example 62, N-(3-(3,5-difluorobenzyl)-5-(6-methyl-7-oxo-6,7-dihydro-H-pyrrolo[2,3-c]pyridin-4-yl)-3H-imidazo[4,5-b]pyridin-7-yl)ethanesulfonamide] | 
7 |  |  |  |  |  | < 100 nM | < 100 nM | CCS(=O)(=O)Nc1cc(-c2cn(C)c(=O)c3[nH]ccc23)nc2c1ncn2Cc1ccccc1C(F)(F)F [Example 63, N-(5-(6-methyl-7-oxo-6,7-dihydro-H-pyrrolo[2,3-c]pyridin-4-yl)-3-(2-(trifluoromethyl)benzyl)-3H-imidazo[4,5-b]pyridin-7-yl)ethanesulfonamide] | 
8 |  |  |  |  |  | < 100 nM | < 100 nM | CCS(=O)(=O)Nc1cc(-c2cn(C)c(=O)c3[nH]ccc23)nc2c1nc(C)n2Cc1ccc(C(F)(F)F)cc1 [Example 65, N-(2-methyl-5-(6-methyl-7-oxo-6,7-dihydro-1H-pyrrolo[2,3-c]pyridin-4-yl)-3-(4-(trifluoromethyl)benzyl)-3H-imidazo[4,5-b]pyridin-7-yl)ethanesulfonamide] | 
9 |  |  |  |  |  | < 100 nM | < 100 nM | CCS(=O)(=O)Nc1cc(-c2cn(C)c(=O)c3[nH]ccc23)nc2c1nc(C)n2Cc1ccccc1C(F)(F)F [Example 66, N-(2-methyl-5-(6-methyl-7-oxo-6,7-dihydro-1H-pyrrolo[2,3-c]pyridin-4-yl)-3-(2-(trifluoromethyl)benzyl)-3H-imidazo[4,5-b]pyridin-7-yl)ethanesulfonamide] | 

More lines, now with the values behind:

Row | Structure (SMILES) | AUC(0-t) ([2]; oral dose 10 mg/kg) | Cmax ([2]; oral dose 10 mg/kg) | half-life ([2]; oral dose 10 mg/kg) | IC50 (BRD4(D1); numeric values) | IC50 (BRD4(D2); numeric values) | IC50 (BRD4(D1); class symbols) | IC50 (BRD4(D2); class symbols) | further results
10 | Cc1nc2ncc(-c3cn(C)c(=O)c4[nH]ccc34)nc2n1Cc1ccc(C(F)(F)F)cc1 [Crystalline Form I of compound 19, 6-methyl-4-(2-methyl-1-(4-(trifluoromethyl)benzyl)-1H-imidazo[4,5-b]pyrazin-6-yl)-1H-pyrrolo[2,3-c]pyridin-7(6H)-one] |  |  |  |  |  |  |  | solid form stability (XRD) ([1]; 25° C.-60% RH for 10 days): no solid form change; solid form stability (XRD) ([1]; 40° C.-75% RH for 14 days): no solid form change; solid form stability (XRD) ([1]; dried at 80° C. for 24 hours): no solid form change
11 | Cc1nc2ncc(-c3cn(C)c(=O)c4[nH]ccc34)nc2n1Cc1ccc(Cl)cc1 [Example 18, 4-(1-(4-chlorobenzyl)-2-methyl-1H-imidazo[4,5-b]pyrazin-6-yl)-6-methyl-1H-pyrrolo[2,3-c]pyridin-7(6H)-one] | 2290 ng·h/mL | 224 ng/mL | 3.4 h |  |  |  |  | 
12 | Cc1nc2ncc(-c3cn(C)c(=O)c4[nH]ccc34)nc2n1Cc1cccc(C(F)(F)F)c1 [Example 23, 4-(1-(3-trifluoromethylbenzyl)-2-methyl-1H-imidazo[4,5-b]pyrazin-6-yl)-6-methyl-1H-pyrrolo[2,3-c]pyridin-7(6H)-one] | 2830 ng·h/mL | 407 ng/mL | 3.3 h |  |  | < 100 nM | < 100 nM | 
13 | Cc1nc2ncc(-c3cn(C)c(=O)c4[nH]ccc34)nc2n1Cc1cc(F)cc(C(F)(F)F)c1 [Example 25, 4-(1-(3-fluoro-5-trifluoromethylbenzyl)-2-methyl-1H-imidazo[4,5-b]pyrazin-6-yl)-6-methyl-1H-pyrrolo[2,3-c]pyridin-7(6H)-one] |  |  |  |  |  | < 100 nM | < 100 nM | AUC(0-t) ([2]; oral dose 20 mg/kg): 13500 ng·h/mL; Cmax ([2]; oral dose 20 mg/kg): 1230 ng/mL; half-life ([2]; oral dose 20 mg/kg): 12.1 h
14 | Cc1nc2ncc(-c3cn(C)c(=O)c4[nH]ccc34)nc2n1Cc1ccc(Cl)c(C(F)(F)F)c1 [Example 27, 4-(1-(3-trifluoromethyl-4-chlorobenzyl)-2-methyl-1H-imidazo[4,5-b]pyrazin-6-yl)-6-methyl-1H-pyrrolo[2,3-c]pyridin-7(6H)-one] | 8500 ng·h/mL | 1000 ng/mL | 3.8 h |  |  | < 100 nM | < 100 nM | 
15 | Cn1cc(-c2cnc3cnn(Cc4ccc(Cl)cc4)c3c2)c2cc[nH]c2c1=O [Example 39, 4-(1-(4-chlorobenzyl)-1H-pyrazolo[4,3-b]pyridin-6-yl)-6-methyl-1,6-dihydro-7H-pyrrolo[2,3-c]pyridin-7-one] | 24000 ng·h/mL | 1700 ng/mL | 4.1 h | 21.2 nM | 7.9 nM |  |  | 
16 | CCS(=O)(=O)Nc1cc(-c2cn(C)c(=O)c3[nH]ccc23)cc2c1nc(C)n2Cc1ccc(F)cc1Cl [Example 57, N-(1-(2-chloro-4-fluorobenzyl)-2-methyl-6-(6-methyl-7-oxo-6,7-dihydro-1H-pyrrolo[2,3-c]pyridin-4-yl)-1H-benzo[d]imidazol-4-yl)ethanesulfonamide] |  |  |  |  |  | < 100 nM | < 100 nM | 
17 | CCS(=O)(=O)Nc1cc(-c2cn(C)c(=O)c3[nH]ccc23)nc2c1nc(C)n2Cc1ccc(F)cc1F [Example 64, N-(3-(2,4-difluorobenzyl)-2-methyl-5-(6-methyl-7-oxo-6,7-dihydro-1H-pyrrolo[2,3-c]pyridin-4-yl)-3H-imidazo[4,5-b]pyridin-7-yl)ethanesulfonamide] |  |  |  | 1.1 nM | 0.5 nM |  |  | AUC(0-t) ([2]; oral dose 6.7 mg/kg): 5590 ng·h/mL; Cmax ([2]; oral dose 6.7 mg/kg): 1480 ng/mL; half-life ([2]; oral dose 6.7 mg/kg): 3.5 h
18 | CCS(=O)(=O)Nc1cc(-c2cn(C)c(=O)c3[nH]ccc23)nc2c1nc(C)n2Cc1cc(F)cc(F)c1 [Example 67, N-(3-(3,5-difluorobenzyl)-2-methyl-5-(6-methyl-7-oxo-6,7-dihydro-H-pyrrolo[2,3-c]pyridin-4-yl)-3H-imidazo[4,5-b]pyridin-7-yl)ethanesulfonamide] |  |  |  |  |  | < 100 nM | < 100 nM | 
19 | CCS(=O)(=O)Nc1cc(-c2cn(C)c(=O)c3[nH]ccc23)nc2c1nc(C)n2Cc1c(C)cccc1C [Example 68, N-(3-(2,6-dimethylbenzyl)-2-methyl-5-(6-methyl-7-oxo-6,7-dihydro-1H-pyrrolo[2,3-c]pyridin-4-yl)-3H-imidazo[4,5-b]pyridin-7-yl)ethanesulfonamide] |  |  |  |  |  | < 100 nM | < 100 nM | 
